Data reported in the supplement of paper PMC10307832.

Tests used:
Assay in all cases: relative viability (nuclei count vs DMSO), 5 days (fraction); higher = more cells survive
QS11 + Trametinib = compound: C1CC2=C(C1)C=C(C=C2)OC3=NC(=C4C(=N3)N(C=N4)CC5=CC=C(C=C5)C6=CC=CC=C6)N[C@@H](CC7=CC=CC=C7)CO [QS11] + CC(=O)Nc1cccc(-n2c(=O)n(C3CC3)c(=O)c3c(Nc4ccc(I)cc4F)n(C)c(=O)c(C)c32)c1 [Trametinib] (partner 0.02 µM)
In short: (§1)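 Lung cancer cell lines were seeded in 1536-well plates and dosed by pin tool the next day, with either a single drug or a fixed anchor-drug dose combined with five library-drug doses (not always all listed) spaced in √10 steps. Five days later, one step fixed the cells and stained their nuclei (final 0.05% Triton X-100, 1% formaldehyde, 1 ug/ml Hoechst), and nuclei were counted on 4× images. Relative viability is the nuclei count in treated wells divided by the count in vehicle wells, and each value is the median of duplicate plates.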

QS11 + Foretinib = compound: C1CC2=C(C1)C=C(C=C2)OC3=NC(=C4C(=N3)N(C=N4)CC5=CC=C(C=C5)C6=CC=CC=C6)N[C@@H](CC7=CC=CC=C7)CO [QS11] + COc1cc2c(Oc3ccc(NC(=O)C4(C(=O)Nc5ccc(F)cc5)CC4)cc3F)ccnc2cc1OCCCN1CCOCC1 [Foretinib] (partner 0.25 µM)
In short: as §1

QS11 + OSI-027 = compound: C1CC2=C(C1)C=C(C=C2)OC3=NC(=C4C(=N3)N(C=N4)CC5=CC=C(C=C5)C6=CC=CC=C6)N[C@@H](CC7=CC=CC=C7)CO [QS11] + COc1cccc2cc(-c3nc([C@H]4CC[C@H](C(=O)O)CC4)n4ncnc(N)c34)[nH]c12 [OSI-027] (partner 0.5 µM)
In short: as §1

[1] = compound: C[As](C)SC[C@H](NC(=O)CC[C@H](N)C(=O)O)C(=O)NCC(=O)O [Darinaparsin] + C[C@]1(O)C[C@@H](c2nc(-c3ccc4ccc(-c5ccccc5)nc4c3)c3c(N)nccn32)C1 [Linsitinib] (partner 1 µM)
In short: as §1

Cell Line	relative viability (QS11 + Trametinib; first compound 0.08 µM)	relative viability (QS11 + Trametinib; first compound 0.253 µM)	relative viability (QS11 + Trametinib; first compound 0.8 µM)	relative viability (QS11 + Trametinib; first compound 2.53 µM)	relative viability (QS11 + Trametinib; first compound 8 µM)	relative viability (QS11 + Foretinib; first compound 0.08 µM)	relative viability (QS11 + Foretinib; first compound 0.253 µM)	relative viability (QS11 + Foretinib; first compound 0.8 µM)	relative viability (QS11 + Foretinib; first compound 2.53 µM)	relative viability (QS11 + Foretinib; first compound 8 µM)	relative viability (QS11 + OSI-027; first compound 0.08 µM)	relative viability (QS11 + OSI-027; first compound 0.253 µM)	relative viability (QS11 + OSI-027; first compound 0.8 µM)	relative viability (QS11 + OSI-027; first compound 2.53 µM)	relative viability (QS11 + OSI-027; first compound 8 µM)	relative viability ([1]; first compound 0.08 µM)	relative viability ([1]; first compound 0.8 µM)	relative viability ([1]; first compound 2.53 µM)	relative viability ([1]; first compound 8 µM)
NCI-H1993	0.57	0.532	0.442	0.508	0.522	0.737	0.636	0.696	0.787	0.628	0.582	0.674	0.547	0.538	0.5	0.65	0.7	0.699	0.695
NCI-H2009	0.242	0.32	0.24	0.279	0.256	1.24	1.24	1.09	0.98	1.11	0.66	0.639	0.53	0.448	0.462	1.29	1.18	1.13	1.15
EMC-BAC-2	0.814	0.954	0.573	0.885	0.804	1.03	1.02	0.857	0.652	0.622	0.391	0.397	0.452	0.373	0.337	0.862	0.758	0.773	0.965
NCI-H2023	0.616	0.57	0.661	0.68	0.597	0.721	0.883	0.686	0.999	0.852	0.477	0.344	0.52	0.486	0.364	0.7	0.669	0.604	0.858
RERF-LC-KJ	0.825	0.902	0.843	0.865	0.76	0.883	0.86	0.62	0.79	0.834	0.519	0.578	0.543	0.448	0.438	1.03	0.979	0.876	0.946
H3255	0.577	0.703		0.631	0.585	0.787	0.864		0.927	0.93	0.593	0.675		0.558	0.608	0.995	0.96	0.86	1.16
HCC-827	0.507	0.559	0.595	0.698	0.557	1.05	1.05	0.8	1.02	0.812	0.845	0.855	0.754	0.862	1.01	1.01	0.93	0.965	1.09
LXF-289	0.671	0.711	0.583	0.621	0.629	0.994	1.05	0.704	0.875	0.834	0.764	0.805	0.692	0.873	0.82	0.986	0.995	0.796	1.04
NCI-H727	0.416	0.404	0.38	0.406	0.396	1.2	0.888	0.829	1.06	0.869	0.576	0.708	0.579	0.404	0.461	0.3	0.225	0.319	0.354
NCI-H322M	0.547	0.543	0.565	0.582	0.513	1.06	1.04	1.06	1.09	1.44	0.549	0.607	0.636	0.687	0.732	1.05	0.998	0.736	0.956
NCI-H2126	0.588	0.562	0.567	0.596	0.508	1.18	1.22	1.07	1.1	1.04	0.685	0.697	0.727	0.653	0.646	0.815	0.756	0.589	0.803
NCI-H2405	0.628	0.585	0.731	0.719	0.79	1	0.986	1	1.08	1.16	0.626	0.663	0.64	0.654	0.694	1.01	0.91	0.812	0.887
NCI-H1944	0.423	0.4		0.349	0.353	0.886	0.967		0.641	0.671	0.41	0.387		0.378	0.314	1.14	1.3	1.23	1.35
NCI-H520	0.676	0.789	0.83	0.65	0.755	0.703	1.08	1.12	0.792	0.867	0.196	0.265	0.297	0.175	0.268	1.02	1.08	0.863	0.985
NCI-H2228	0.483	0.392	0.507	0.788	0.547	0.835	0.827	0.755	1	1.03	0.534	0.424	0.538	0.74	0.597	0.817	0.702	0.743	0.746
EKVX	0.288	0.618	0.3	0.306	0.321	0.732	0.764		0.848	1.23	0.644	0.635		0.596	0.693	1.33	0.902	0.969	1.2
